This is an account of results in patent US8536139B2, “Compositions comprising lipoteichoic acid for use in treating pleural effusion or pneumothorax” (ISIS Innovation Limited, priority 2007, dated 2013).

Assay type in all cases: in vivo, human
Data set [1] concerns adults with histocytologically proven malignant pleural effusion. The data set can be described thus: Alveolar to arterial gradient in the partial pressure of oxygen (arterial blood gases breathing air). The text has this: Arterial blood gases breathing air were taken on days 1 and 3 of the first week (pre and post control saline), and on days 7 and 9 (pre and post LTA-T) to identify any impaired gas exchange (which is a problem with talc pleurodesis). The efficiency of lung oxygen exchange was quantified from the change in the alveolar to arterial gradient for the partial pressure of oxygen calculated from these blood gas samples, using standard methods.
(§1) Changes in continuous variables were compared to baseline using a paired t-test (SPSS version 12.0).

For data set [2] the test system is unchanged. The data set can be described thus: Phase I/IIa trial of intrapleural LTA-T: dose escalation and toxicity. The text has this:
The study was a phase I/IIa toxicity/non-randomised “proof of concept” efficacy trial. The protocol included administration of an intrapleural saline control followed by seven days pleural fluid production measurement prior to the administration of LTA-T to allow the assessment of any side-effects from LTA-T administration, and both acute pleural fluid production changes and the frequency of long-term pleurodesis efficacy after intrapleural LTA-T (see FIG. 1).
The subjects were adults (aged≧18) with histocytologically proven malignant pleural effusion requiring symptomatic treatment.
(§2) After informed consent, an indwelling pleural catheter (PleurX, Denver, Colo.) was placed in the pleural effusion and the pleural space fully drained. Markers of toxicity (clinical symptoms, blood parameters, performance status) were recorded daily on the first 14 days of the study and at intervals thereafter (FIG. 1).
After initial complete fluid drainage, 30 mls intra-pleural saline (saline control) was administered (day 1). The daily pleural fluid drainage was then recorded for seven days to quantify the rate of production of pleural fluid. On day seven, subjects received a single intra-pleural injection of LTA-T, according to the dosing schedule (table 1). The starting dose was 250 mcg. Patients remained in hospital for one night following LTA-T administration in a respiratory unit equipped for the care of acute respiratory failure to permit immediate adverse event monitoring.
(§3) Patient symptoms, performance status, radiographic pleural fluid recurrence (chest radiograph), adverse events and the clinical need for further pleural fluid drainage was assessed on days 22, 43, 64, 85. Where further fluid drainage was required, the time from the administration of LTA-T to first drainage was recorded. Those with recurrent pleural fluid were offered sterile talc pleurodesis (as standard care). All patients were followed up to death.

Data set [3] shares this test system. Nature of the data set: Peripheral blood white cell count change 24 hours after intrapleural administration. The settings on record: 7 subjects receiving >750 mcg; p=0.016, paired t-test. The procedure:
FIG. 3 illustrates the change in peripheral white cell count 24 hours after administration of intrapleural saline control or LTA-T, in all patients (FIG. 3a) and patients receiving 750 mcg LTA-T or more (FIG. 3b). Individual results are shown and mean and SD data for each group.
as §2, §1

Data set [4] concerns malignant pleural effusion. The data set can be described thus: Long-term pleural fluid control (pleurodesis success, need for late therapeutic drainage). The method, then:
Over the next 7 days (days 7-14), daily pleural fluid volume drainage and pleural fluid cytology for malignant cells was performed unless pleural fluid flow ceased. On day 14, the intra-pleural catheter was flushed and closed (but left in situ) and not used again for the duration of the study unless recurrent pleural fluid caused breathlessness requiring treatment by fluid drainage.
as §3
Long-term pleural fluid control was assessed by noting which patients required late therapeutic (>500 mls) pleural fluid drainage from their indwelling catheter in association with symptoms (excluding the subject not capable of achieving pleurodesis due to trapped lung). […] Between day 14 (when the indwelling catheter was first locked closed) and 1 month, 3 further patients received one therapeutic fluid drainage (pleurodesis success from day 14 9/12 (75%)). In those patients receiving a dose >750 mcg of intrapleural LTA-T, 6/7 required no therapeutic drainage at 1 month (86% pleurodesis success rate).

Several values for one entry are separate records, joined by “and”; a condition that tells them apart may be missing. Identical values can stand only once.

As to lipoteichoic acid T [LTA-T], the “Alveolar to arterial gradient for the partial pressure of oxygen, post LTA-T, mean (SD)” value in data set [1] (day 9, mean baseline (SD) 4.24 (2.92) kPa) is listed as 4.88 (1.80) kPa. Further, the Blood oxygen levels entry in data set [1] (dose of 750 mcg to 1000 mcg) is “no evidence of depressed blood oxygen levels”. In addition, in data set [1] (following LTA-T compared with saline control), the “Change in the alveolar to arterial gradient versus saline control” value is “similar”. In data set [2] (750-1500 mcg intrapleural), the “Toxicity at the therapeutic dose” value is reported as “mild with no consistent side effect profile”. In addition, the Pain entry in data set [2] (dose of 750 mcg to 1000 mcg) is “almost no pain”. In addition, the Side effects result in data set [2] (individual patients, single intrapleural dose 250 mcg) is “mild fever and Nil and Mild chest pain 2 hours post administration”; in data set [2] (individual patients, single intrapleural dose 375 mcg) it was “Nil (2×) and Mild headache and light headed 4 hours”; in data set [2] (individual patients, single intrapleural dose 750 mcg) it was “Nil and Mild back pain on inspiration after LTA-T, and Nausea, vomiting and pyrexia for 3 days”; in data set [2] (individual patients, single intrapleural dose 1500 mcg), “Nil”; in data set [2] (patient 14, single intrapleural dose 3000 mcg), “systemic inflammatory reaction”. Also, the “Raised inflammatory markers (CRP)” value in data set [2] (patient 10, 750 mcg, post LTA-T administration) is recorded as “inflammatory markers (CRP > 285)”. Moreover, the “Blood parameter, performance status or respiratory status toxicities” value in data set [2] (whole trial) is recorded as “No blood parameter, performance status or respiratory status toxicities were seen”. Further, the “Difference in WCC change, LTA-T vs saline” value in data set [3] is 4.70 (3.77). For the same substance, in data set [4] (9/12, day 14 to 1 month, where pleurodesis technically achievable), the “Pleurodesis success from day 14” value worked out at 75%. For the same substance, in data set [4] (12/13 patients, trapped lung subject excluded), the “Patients not requiring any further therapeutic pleural drainage beyond 1 month from trial entry” value was 92%. Also, in data set [4] (dose of 750 mcg to 1000 mcg), the Pleurodesis outcome is given as “effective pleurodesis”. Moreover, the “Pleurodesis success rate (no therapeutic drainage at 1 month)” value in data set [4] (patients receiving >750 mcg intrapleural, 6/7) is given as 86%.
